{"source": "patent US20110275606A1", "about": "“SUBSTITUTED PORPHYRINS” (DUKE UNIVERSITY, priority 2009, published 2011)", "key": {"[1]": {"assay": "Thin layer chromatography Rf (lipophilicity)", "format": "physicochemical", "conditions": "thin-layer silica, saturated KNO3(aq):H2O:MeCN (1:1:8); measure of lipophilicity", "experimental": "Thin layer chromatography (TLC) was carried out in polyester-backed silica-gel sheets without fluorescent indicator (Sigma-Aldrich Z122777-25EA) cut into ˜2×20 cm strips and eluted with a saturated KNO3(aq):H2O:MeCN (1:1:8, v/v/v) mixture in a capped 1 L chamber. Typically, 1 microliter of ˜1 mM samples were applied at ˜1 cm of the strip border and the solvent front was allowed to run ˜12 cm.\n(§1) Table indicating the redox properties (E1/2 of the Mn^IIIP/Mn^IIP redox couple) and antioxidant (log kcat for the dismutation of superoxide, O2′^−) properties of ortho and meta isomers of Mn N-substituted pyridylporphyrins. The E1/2 and log kcat were determined as described in Reboucas et al., Dalton Trans., 2008, 1233-42. Rf is the ratio of the drug path over solvent path on thin-layer silica with water/acetonitrile/KNO3 saturated water and is a measure of […]. […] In addition, as the length of the pyridyl substituent increases the SOD activity of the ortho compounds drops while there is no change in the SOD activity of the meta compounds.\nRf is a measure of lipophilicity and is linearly related to log P where P is the partition coefficient between water and n-octanol. (Kos et al., Free Radic. Biol. Med., 47, 72-78, 2009, which is incorporated by reference herein)."}, "[2]": {"assay": "Redox properties: E1/2 of the Mn^IIIP/Mn^IIP redox couple", "format": "physicochemical", "experimental": "as §1"}, "[3]": {"assay": "Antioxidant properties: log kcat for the dismutation of superoxide (SOD activity)", "format": "biochemical", "experimental": "as §1"}, "WT cells": {"system": "WT cells", "assay": "XTT cell proliferation, radiation-induced cytotoxicity", "format": "cell-based", "conditions": "5 Gy, 48 hours post-radiation, compared to untreated irradiated WT cells", "experimental": "XTT, a tetrazolium salt, is used to measure cell viability after irradiation exposure. XTT is reduced by viable mitochondria to formazan, which causes a colorimetric change that can be measured at 450 nm. Approximately 5×10^4 cells are seeded per well in 96-well plates and incubated for 18 hours in fresh medium along with the compound at the final concentration indicated (3 replicates each). One set of plates is used as an unirradiated control and the other set was irradiated with 5 Gy. Five Gy is the optimal dose for observing efficient cytotoxicity within 48 hours. An XTT cell proliferation kit (Roche) is used to measure this cytotoxicity. All assays are performed in triplicate and the absorbance is read on a Spectramax plate reader. XTT is used to assess both the toxicity of the compounds and the effect of each compound on IR-induced cytotoxicity. All cells are pre-treated with the indicated compound two hours prior to being irradiated with 5 Gy and are assayed for viability 48 hours post-radiation."}, "wild type cells": {"system": "wild type cells", "assay": "Annexin V/propidium iodide post-radiation apoptosis, wild type cells", "format": "cell-based", "conditions": "5 Gy", "experimental": "(§2) Annexin V/propidium iodide staining is used as a second method to measure radiation-induced cytotoxicity. Cells are incubated in fresh medium along with the compounds at the final concentrations indicated. One set of samples is irradiated (5 Gy) to efficiently induce apoptosis within 48 hours. An annexin V/propidium iodide kit (BioVision) is used to detect apoptotic cells. The annexin V is labeled with fluorescein isothiocyanate (FITC) to detect phospholipid phosphatidylserine (PS) on the outer membrane of apoptotic cells; propidium iodide (PI) is used to detect necrotic cells. The assay is performed according to the manufacturer's instructions. Briefly, approximately 5×10^5 cells are washed in PBS, resuspended in annexin V and PI staining solution for 15 min at room temperature and analyzed immediately by flow cytometry (Flow Cytometry Core, UCLA). Annexin V and propidium iodide staining is used to measure post-radiation apoptosis."}, "A-T cells": {"system": "A-T cells", "assay": "Annexin V/propidium iodide post-radiation apoptosis, A-T cells", "format": "cell-based", "conditions": "5 Gy", "experimental": "as §2"}, "Wildtype (WT) cells": {"system": "Wildtype (WT) cells", "assay": "Gamma H2AX immunofluorescence, radiation-induced DNA damage", "format": "cell-based", "conditions": "2 Gy, assessed at 15 minutes", "experimental": "Radiation-induced DNA damage recognition is measured by γ-H2AX immunofluorescence. Wildtype (WT) cells are propagated in fresh medium with the compounds at specified concentrations. […] WT cells are collected at log phase of their growth cycle, after an 18-hour incubation with the indicated compounds. After treatment, the cells are irradiated with 2 Gy and assessed at 15 minutes. These conditions maximize the yield of DNA damaged cells while minimizing cytotoxicity. The cells are dropped onto cover slips and fixed with 4% paraformaldehyde, semi-permeabilized with 0.5% Triton-X 100 and washed with PBS. Cells are incubated with 1:400 dilution of mouse monoclonal antibody to γ-H2AX (Upstate Biotechnology), followed by 1:200 dilution of goat anti-mouse IgG antibody to immunoglobulin labeled with FITC (Jackson Immunochemicals) in PBS containing 10% FBS for 1.5 and 1 h, respectively. Slides are analyzed for γ-H2AX nuclear foci formation with FISH analysis software (Vysis) on a Leica DM RXA automated microscope equipped with Photometrix SenSyn. All slides are coded by one person and read blindly by another."}, "CD1 male mice": {"system": "CD1 male mice", "assay": "Carrageenan-induced pleurisy", "format": "in vivo", "conditions": "0.3 mg/kg; 4 h after carrageenan", "experimental": "Pleurisy is induced by carrageenan. Six to eight week old CD1 male mice are used. The mice are anesthetized with isoflurane and a skin incision is made at the level of the left sixth intercostal space. The underlying muscle is dissected and saline (0.2 ml) or saline containing 1% (w/v) λ-carrageenan (Sigma-Aldrich Ltd, 0.2 ml) is injected into the pleural cavity. The skin incision is closed with a suture and the animals are allowed to recover. At 4 h after the injection of carrageenan, the animals are killed. The chest is carefully opened and the pleural cavity is rinsed with 2 ml of saline solution containing heparin (5 U/ml) and indomethacin (10 μg/ml). The exudate and washing solution is removed by aspiration and the total volume is measured. Any exudate, which is contaminated with blood, is discarded. The amount of exudate is calculated by subtracting the volume injected (2 ml) from the total volume recovered. The leukocytes in the exudate are suspended in phosphate-buffer saline (PBS, 0.01M, pH7.4) and counted with an optical microscope in a Burker's chamber after vital Trypan Blue staining."}, "Male Sprague-Dawley rats": {"system": "Male Sprague-Dawley rats", "assay": "Carrageenan-induced paw oedema", "format": "in vivo", "conditions": "0.3 mg/kg; rat paw"}, "[4]": {"system": "B16F10 melanoma cell line", "assay": "Hyperthermia plus Mn porphyrin, tumor growth delay", "format": "in vivo, C57/BL6 mice", "conditions": "combination with hyperthermia (1d, 5d, 8d); 5 mg/kg twice per day; sacrifice day 9", "experimental": "Treatment with hyperthermia and Mn porphyrins leads to a significant delay in tumor growth. In C57/BL6 mice, B16F10 melanoma cell line ([…]) is implanted in right flank. […] Tumor volumes are measured. Animals are sacrificed at day 9."}, "[5]": {"system": "4T1 window chamber tumors", "assay": "Radiosensitivity of tumor vasculature in vivo (window chamber)", "set-up": "species or system mice", "conditions": "combined with radiation 3 x 5 Gy; 6 mg/kg/day for three days; between 48 and 72 hours post-radiation", "experimental": "4T1 window chamber tumors are randomized to treatment with PBS or MnTE-2-PyP^5+, and radiation or sham-irradiation. […] Tumors are imaged immediately after radiation (0 hours), and every day thereafter (24, 48, and 72 hours), and these images are used to calculate the tumor vascular length densities.\nMice are anesthetized with sodium pentobarbital (80 mg/kg, i.p.), and a 1-cm diameter circular incision is made in the dorsal skin flap, over which a titanium chamber is surgically implanted. A 10-μL suspension of tumor cells (5×10^3 cells) is then injected into the opposing flap of skin. […] Observations of window chamber tumors are performed daily on restrained, unanaesthetized mice with an inverted Zeiss fluorescence microscope (Carl Zeiss, Jena, Germany). Images are captured onto a personal computer with Scion Image software (Frederick, Md.) and analyzed with Adobe Photoshop (San Jose, Calif.). Tumor volume and vascular length densities are calculated as follows. Briefly, tumor volumes are calculated with the formula: d^2(3.14/2), where the diameter is determined from low-power (2.5×) microscopy images by comparing pixel dimensions with micrometer values. Vascular length densities are measured from medium-power (5×) fields by using image analysis software (Scion Image) to trace the vascular network. […]"}, "SOD-deficient E. coli": {"system": "SOD-deficient E. coli", "assay": "Aerobic growth of SOD-deficient E. coli in minimal medium (turbidimetry at 700 nm)", "format": "cell-based, Escherichia coli", "conditions": "20 and 30 μM, 19th hour, positive control MnTE-2-PyP^5+", "experimental": "Escherichia coli (E. coli) strains used were AB1157, wild type (F-thr-1; leuB6; proA2; his-4; thi-1; argE2; lacY1; galK2; rpsL; supE44; ara-14; xyl-15; mtl-1; tsx-33), and JI1132, SOD-deficient, sodA-sodB-(same as AB1157 plus (sodA::mudPR13)25 (sodB-kan)1-Δ2). Both strains were obtained from J. A. Imlay. In addition to AB/JI strains another strain GC and its SOD-deficient analogue QC were used. The experiments were carried out as described in more detail in Reboucas et al., Dalton Trans., 2008, 1233-42. Briefly, cultures were grown aerobically in a 5 amino acid restricted medium (L-leucine, L-threonine, L-proline, L-arginine, L-histidine) in flasks on a water bath shaker at 37° C. and 200 rpm. The effect of the compound of Example 1 on the growth of these strains was followed turbidimetrically at 700 nm (to minimize the interference of compounds studied) and compared to the growth curves of both strains in the absence of Mn porphyrin (controls). Deionized water was used throughout the study. The effects are shown in FIG. 2 for one strain (QC and GC) and in FIG. 3 for other strain (AB and JI). […] The effects varied with the type of the strain."}}}
{"molecule": "MnTnPrOH-2-PyP^5+", "values": [{"measurement": "Rf", "setting": "[1]", "value": 0.05}, {"measurement": "E1/2", "setting": "[2]", "value": "+238 mV"}, {"measurement": "logkcat", "setting": "[3]", "value": 7.38}, {"measurement": "reduction of IR-induced cytotoxicity", "setting": "WT cells", "value": 50, "unit": "%"}, {"measurement": "reduction in the percentage of apoptotic cells after radiation exposure", "setting": "wild type cells", "value": 60, "unit": "%"}, {"measurement": "reduction in the percentage of apoptotic cells after radiation exposure", "setting": "A-T cells", "value": 40, "unit": "%"}, {"measurement": "reduction of IR-induced γ-H2AX immunofluorescent nuclear foci (IRIFs)", "setting": "Wildtype (WT) cells", "value": 57, "unit": "%"}, {"measurement": "decrease of myeloperoxidase activity", "setting": "CD1 male mice", "value": "to control levels"}, {"measurement": "decrease of number of polymorphonuclear cells", "setting": "CD1 male mice", "value": "to control levels"}, {"measurement": "decrease of volume of exudates", "setting": "CD1 male mice", "value": "to control levels"}, {"measurement": "decrease of myeloperoxidase activity", "setting": "Male Sprague-Dawley rats", "value": "to control levels"}, {"measurement": "decrease of number of polymorphonuclear cells", "setting": "Male Sprague-Dawley rats", "value": "to control levels"}, {"measurement": "delay of tumor growth", "setting": "[4]", "value": "Full delay of tumor growth"}, {"measurement": "tumor devascularization (vascular length density)", "setting": "[5]", "value": "significant tumor devascularization"}]}
{"molecule": "OCCC[n+]1ccccc1-c1c2nc(c(-c3cccc[n+]3CCCO)c3ccc([nH]3)c(-c3cccc[n+]3CCCO)c3nc(c(-c4cccc[n+]4CCCO)c4ccc1[nH]4)C=C3)C=C2", "note": "[H2TnPrOH-2-PyP]", "values": [{"measurement": "Rf", "setting": "[1]", "value": 0.09}]}
{"molecule": "MnTnPrOH-3-PyP^5+", "values": [{"measurement": "protecting E. coli compared with MnTE-2-PyP^5+ (FIG. 3)", "setting": "SOD-deficient E. coli; SOD-deficient strain JI / wild type AB", "value": "better"}, {"measurement": "protecting E. coli compared with MnTE-2-PyP^5+ (FIG. 2)", "setting": "SOD-deficient E. coli; SOD-deficient strain QC / wild type GC", "value": "similar"}, {"measurement": "E1/2", "setting": "[2]", "value": "+52 mV"}, {"measurement": "logkcat", "setting": "[3]", "value": 6.83}, {"measurement": "reduction of IR-induced cytotoxicity", "setting": "WT cells", "value": 50, "unit": "%"}, {"measurement": "reduction in the percentage of apoptotic cells after radiation exposure", "setting": "wild type cells", "value": 60, "unit": "%"}, {"measurement": "reduction in the percentage of apoptotic cells after radiation exposure", "setting": "A-T cells", "value": 40, "unit": "%"}, {"measurement": "reduction of IR-induced γ-H2AX immunofluorescent nuclear foci (IRIFs)", "setting": "Wildtype (WT) cells", "value": 57, "unit": "%"}, {"measurement": "decrease of myeloperoxidase activity", "setting": "CD1 male mice", "value": "to control levels"}, {"measurement": "decrease of number of polymorphonuclear cells", "setting": "CD1 male mice", "value": "to control levels"}, {"measurement": "decrease of volume of exudates", "setting": "CD1 male mice", "value": "to control levels"}, {"measurement": "decrease of myeloperoxidase activity", "setting": "Male Sprague-Dawley rats", "value": "to control levels"}, {"measurement": "decrease of number of polymorphonuclear cells", "setting": "Male Sprague-Dawley rats", "value": "to control levels"}, {"measurement": "delay of tumor growth", "setting": "[4]", "value": "Full delay of tumor growth"}, {"measurement": "tumor devascularization (vascular length density)", "setting": "[5]", "value": "significant tumor devascularization"}]}
{"molecule": "OCCC[n+]1cccc(-c2c3nc(c(-c4ccc[n+](CCCO)c4)c4ccc([nH]4)c(-c4ccc[n+](CCCO)c4)c4nc(c(-c5ccc[n+](CCCO)c5)c5ccc2[nH]5)C=C4)C=C3)c1", "note": "[H2TnPrOH-3-PyP]", "values": [{"measurement": "Rf", "setting": "[1]", "value": 0.1}]}
